# US20250215010A1, “DIAZABICYCLOOCTANE DERIVATIVES USEFUL AS MATRIX METALLOPROTEINASE INHIBITORS” (VASA THERAPEUTICS SPOLKA Z OGRANICZONA ODPOWIEDZIALNOSCIA, priority 2022, published 2025)
# Columns and labels:
# Assay type in all cases: biochemical
# [1] = target: T1, MMP1 (Homo sapiens, UniProt P03956); experiment: MMP-1 colorimetric inhibition assay (Enzo kit BML-AK404); conditions: thiopeptide substrate, absorbance 415 nm; read-out: MMP 1 IC50 class
# T1 sequence (P03956 100-269 limits assumed): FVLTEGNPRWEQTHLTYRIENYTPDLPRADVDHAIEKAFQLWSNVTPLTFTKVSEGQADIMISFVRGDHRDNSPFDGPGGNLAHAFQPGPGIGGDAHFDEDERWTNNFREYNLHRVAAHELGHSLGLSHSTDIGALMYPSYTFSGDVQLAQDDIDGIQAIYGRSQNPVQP
# Method in brief: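 Colorimetric kit run per manufacturer protocol. MMP-1 cleaves a thiopeptide substrate (Ac-PLG-[2-mercapto-4-methylpentanoyl]-LG-OC2H5); released thiol reacts with DTNB, monitored at 415 nm. IC50 (nM) from inhibition curves of normalized values.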
# [2] = target: ADAM17 (TACE) (Homo sapiens, UniProt P78536); experiment: TACE fluorometric inhibition assay (Enzo kit BML-AK310); conditions: quenched fluorogenic peptide, ex/em 320/420 nm; read-out: TACE IC50 class
# ADAM17 (TACE), sequence (P78536 215-477 limits assumed): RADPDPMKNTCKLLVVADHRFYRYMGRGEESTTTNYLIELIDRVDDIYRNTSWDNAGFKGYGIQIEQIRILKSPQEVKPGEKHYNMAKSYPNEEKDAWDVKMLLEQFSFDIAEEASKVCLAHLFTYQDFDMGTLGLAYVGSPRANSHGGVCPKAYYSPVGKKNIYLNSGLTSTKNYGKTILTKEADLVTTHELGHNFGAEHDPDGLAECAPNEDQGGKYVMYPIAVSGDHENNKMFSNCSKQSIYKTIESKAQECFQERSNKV
# Method in brief: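 Kit-based TACE assay run per manufacturer's protocol, using quenched fluorogenic peptide Mca-PLAQAV-Dpa-RSSSR-NH2 whose cleavage raises Mca fluorescence. Signal read at ex/em 320/420 nm; IC50 (nM) derived from inhibition curves of normalized values.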
# [3] = target: T2, MMP13 (Homo sapiens, UniProt P45452); experiment: MMP-13 colorimetric inhibition assay (Enzo kit BML-AK412); conditions: thiopeptide substrate, absorbance 415 nm; read-out: MMP 13 IC50 class
# T2 construct: purchased Enzo Life Sciences, Inc. BML-AK412
# Method in brief: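 Thiopeptide chromogenic substrate (Ac-PLG-[2-mercapto-4-methylpentanoyl]-LG-OC2H5); MMP-13 hydrolysis of the thioester yields a thiol that reacts with DTNB, read at 415 nm. IC50 values (nM) derived from inhibition curves of normalized data.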
# [4] = target: MMP9 (Homo sapiens, UniProt P14780); experiment: MMP-9 colorimetric inhibition assay (Enzo kit BML-AK410); conditions: thiopeptide substrate, absorbance 415 nm; read-out: MMP 9 IC50 class
# MMP9, sequence (P14780 94-707): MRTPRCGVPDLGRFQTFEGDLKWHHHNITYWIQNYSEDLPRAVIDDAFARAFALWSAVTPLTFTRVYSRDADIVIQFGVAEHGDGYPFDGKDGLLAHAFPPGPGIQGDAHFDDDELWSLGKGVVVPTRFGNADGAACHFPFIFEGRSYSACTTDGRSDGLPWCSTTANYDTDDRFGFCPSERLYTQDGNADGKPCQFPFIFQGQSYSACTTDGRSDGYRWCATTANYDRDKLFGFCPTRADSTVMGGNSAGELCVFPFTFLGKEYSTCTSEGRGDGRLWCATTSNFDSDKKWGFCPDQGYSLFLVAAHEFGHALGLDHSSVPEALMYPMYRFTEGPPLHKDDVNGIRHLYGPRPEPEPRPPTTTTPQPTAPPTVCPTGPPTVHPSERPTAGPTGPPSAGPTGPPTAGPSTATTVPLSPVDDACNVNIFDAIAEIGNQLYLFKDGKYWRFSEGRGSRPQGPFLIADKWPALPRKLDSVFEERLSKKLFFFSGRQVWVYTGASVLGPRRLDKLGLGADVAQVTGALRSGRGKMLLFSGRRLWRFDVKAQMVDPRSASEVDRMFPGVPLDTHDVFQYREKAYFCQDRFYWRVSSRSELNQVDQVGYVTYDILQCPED
# Method in brief: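 Colorimetric thioester-substrate assay: hydrolysis of Ac-PLG-[2-mercapto-4-methylpentanoyl]-LG-OC2H5 frees a thiol that reacts with DTNB, read at 415 nm. Run per kit protocol. IC50 (nM) taken from inhibition curves of normalized values.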
# [5] = target: T3, MMP2 (Homo sapiens, UniProt P08253); experiment: MMP-2 colorimetric inhibition assay (Enzo kit BML-AK408); conditions: thiopeptide substrate, absorbance 415 nm; read-out: MMP 2 IC50 class
# T3 sequence (P08253 110-660): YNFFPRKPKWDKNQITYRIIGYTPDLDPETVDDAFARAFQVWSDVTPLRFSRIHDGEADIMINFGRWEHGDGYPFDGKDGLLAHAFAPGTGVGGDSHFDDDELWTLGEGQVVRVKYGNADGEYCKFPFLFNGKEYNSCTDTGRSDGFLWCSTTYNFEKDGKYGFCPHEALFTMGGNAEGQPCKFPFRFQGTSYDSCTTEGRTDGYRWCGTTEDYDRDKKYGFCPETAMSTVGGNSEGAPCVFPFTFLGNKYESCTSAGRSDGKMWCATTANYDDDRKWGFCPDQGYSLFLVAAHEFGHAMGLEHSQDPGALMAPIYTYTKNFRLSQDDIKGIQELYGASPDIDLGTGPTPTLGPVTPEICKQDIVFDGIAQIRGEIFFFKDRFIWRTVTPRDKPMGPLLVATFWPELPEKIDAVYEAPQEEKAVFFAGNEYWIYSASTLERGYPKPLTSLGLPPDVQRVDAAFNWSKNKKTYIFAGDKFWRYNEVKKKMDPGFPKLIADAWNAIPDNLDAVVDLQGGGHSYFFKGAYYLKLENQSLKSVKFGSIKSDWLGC
# Method in brief: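 Cleavage of the thiopeptide Ac-PLG-[2-mercapto-4-methylpentanoyl]-LG-OC2H5 releases a sulfhydryl that reacts with DTNB, read at 415 nm per the kit protocol. IC50 values (nM) come from inhibition curves of normalized data.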
# [6] = target: T4, ADAM10 (Homo sapiens, UniProt O14672); experiment: SensoLyte 520 ADAM10 fluorometric activity assay (AnaSpec AS-72226); conditions: FRET peptide substrate, ex/em 495/520 nm; read-out: ADAM 10 IC50 class
# T4 construct: purchased AnaSpec, Inc. AS-72226
# T4 sequence (O14672 214-748): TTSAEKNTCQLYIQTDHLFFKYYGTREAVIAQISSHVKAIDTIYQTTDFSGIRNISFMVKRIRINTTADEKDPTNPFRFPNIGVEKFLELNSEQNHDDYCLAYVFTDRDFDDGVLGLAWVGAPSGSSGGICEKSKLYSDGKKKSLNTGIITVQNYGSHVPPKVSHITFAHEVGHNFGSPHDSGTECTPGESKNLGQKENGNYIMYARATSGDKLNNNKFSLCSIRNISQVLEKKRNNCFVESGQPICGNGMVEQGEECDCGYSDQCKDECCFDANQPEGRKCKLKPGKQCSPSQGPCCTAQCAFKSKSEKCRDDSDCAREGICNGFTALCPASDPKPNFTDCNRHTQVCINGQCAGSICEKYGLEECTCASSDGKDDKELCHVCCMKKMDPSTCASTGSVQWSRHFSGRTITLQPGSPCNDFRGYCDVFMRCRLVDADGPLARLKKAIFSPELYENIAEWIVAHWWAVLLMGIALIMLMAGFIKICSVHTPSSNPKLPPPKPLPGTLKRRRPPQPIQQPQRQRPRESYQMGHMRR
# Method in brief: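 ADAM10 activity was read by cleavage of a FRET peptide substrate (5-FAM/QXL 520), run per the kit protocol, with fluorescence at 495/520 nm. IC50 values (nM) came from inhibition curves of normalized data.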
compound,measurement,setting,value
"CC(=O)N1[C@@H]2CC[C@H]1[C@H](C(=O)NO)N(S(=O)(=O)c1ccc(Oc3ccc(OC(F)(F)F)cc3)nc1)C2 [Example 54, (1S,2R,5R)-8-acetyl-N-hydroxy-3-((6-(4-(trifluoromethoxy)-phenoxy)pyridin-3-yl)sulfonyl)-3,8-diazabicyclo[3.2.1]-octane-2-carboxamide]",IC50,[1],1000 to 10000 nM
same,IC50,[2],1000 to 10000 nM
same,IC50,[3],< 50 nM
same,IC50,[4],< 50 nM
same,IC50,[5],< 50 nM
same,IC50,[6],> 10000 nM
"CCC(=O)N1[C@@H]2CC[C@H]1[C@H](C(=O)NO)N(S(=O)(=O)c1ccc(Oc3ccc(OC(F)(F)F)cc3)nc1)C2 [Example 55, (1S,2R,5R)-N-hydroxy-8-propionyl-3-((6-(4-(trifluoromethoxy)-phenoxy)pyridin-3-yl)sulfonyl)-3,8-diazabicyclo[3.2.1]-octane-2-carboxamide]",IC50,[1],1000 to 10000 nM
same,IC50,[2],1000 to 10000 nM
same,IC50,[3],< 50 nM
same,IC50,[4],< 50 nM
same,IC50,[5],< 50 nM
same,IC50,[6],> 10000 nM
"CC(C)C(=O)N1[C@@H]2CC[C@H]1[C@H](C(=O)NO)N(S(=O)(=O)c1ccc(Oc3ccc(OC(F)(F)F)cc3)nc1)C2 [Example 56, (1S,2R,5R)-N-hydroxy-8-isobutyry1-3-((6-(4-(trifluoro-methoxy)phenoxy)-pyridin-3-yl)-sulfonyl)-3,8-diazabicyclo-[3.2.1]octane-2-carboxamide]",IC50,[1],> 10000 nM
same,IC50,[2],1000 to 10000 nM
same,IC50,[3],< 50 nM
same,IC50,[4],< 50 nM
same,IC50,[5],< 50 nM
same,IC50,[6],> 10000 nM
"CC(C)(C)C(=O)N1[C@@H]2CC[C@H]1[C@H](C(=O)NO)N(S(=O)(=O)c1ccc(Oc3ccc(OC(F)(F)F)cc3)nc1)C2 [Example 57, (1S,2R,5R)-N-hydroxy-8-pivaloyl-3-((6-(4-(trifluoro-methoxy)phenoxy)-pyridin-3-yl)-sulfonyl)-3,8-diazabicyclo-[3.2.1]octane-2-carboxamide]",IC50,[1],1000 to 10000 nM
same,IC50,[2],1000 to 10000 nM
same,IC50,[3],< 50 nM
same,IC50,[4],< 50 nM
same,IC50,[5],< 50 nM
same,IC50,[6],> 10000 nM
"CC(=O)N1[C@@H]2CC[C@H]1[C@H](C(=O)NO)N(S(=O)(=O)c1ccc(Oc3ccc(OC(C)C)cc3)nc1)C2 [Example 58, (1S,2R,5R)-8-acetyl-N-hydroxy-3-((6-(4-isopropoxyphenoxy)-pyridin-3-yl)-sulfonyl)-3,8-diazabicyclo-[3.2.1]octane-2-carboxamide]",IC50,[1],1000 to 10000 nM
same,IC50,[2],> 10000 nM
same,IC50,[3],< 50 nM
same,IC50,[4],< 50 nM
same,IC50,[5],< 50 nM
same,IC50,[6],> 10000 nM
"CCC(=O)N1[C@@H]2CC[C@H]1[C@H](C(=O)NO)N(S(=O)(=O)c1ccc(Oc3ccc(OC(C)C)cc3)nc1)C2 [Example 59, (1S,2R,5R)-N-hydroxy-3-((6-(4-isopropoxyphenoxy)pyridin-3-yl)-sulfonyl)-8-propionyl-3,8-diaza-bicyclo[3.2.1]octane-2-carboxamide]",IC50,[1],1000 to 10000 nM
same,IC50,[2],> 10000 nM
same,IC50,[3],< 50 nM
same,IC50,[4],< 50 nM
same,IC50,[5],< 50 nM
same,IC50,[6],> 10000 nM
